Earlier results as cited in patent US9775839B2, “2-pyrazine carboxamides as spleen tyrosine kinase inhibitors” (Merck Sharp & Dohme Corp., priority 2014, dated 2017).

Experiments:
[1] = allergic rhinitis, phase II clinical trial
[2] = test system: PGD2; details: dosed intranasally, allergic rhinitis, phase I/II study

SMILES: Oc1cccc(Nc2ncc(F)c(Nc3cccc(O)c3)n2)c1 [Example R112]
- efficacy versus placebo [1]: lack of efficacy
- change in PGD2 [2]: statistically significant decrease
- clinical safety [2]: safe across a range of indicators
